Each structure is given as a SMILES string.

These results are taken from PMC12749748, “Chemically-induced degradation of the endoplasmic-reticulum stress sensor IRE1 by a VHL-recruiting chimera” (Nature Communications, 2025).

One assay deals with AMO1 cells. The experiment in a line: Global proteomics of protein depletion in AMO1 cells. The class given is cell-based. As to conditions: 1 µM, 4 h. Here is the method: One milligram of protein lysate in denaturing buffer (8 M Urea, 20 mM HEPES, pH 8.0) was reduced (5 mM dithiothreitol (DTT), 45 min at 37 °C), alkylated (15 mM iodoacetamide (IAA), 20 min at room temperature in the dark), and quenched (5 mM DTT, 15 min at room temperature in the dark). Proteins were pelleted by chloroform-methanol precipitation. The resulting pellet was resuspended in denaturing buffer, diluted to 4 M Urea, and digested for 4 h at 37 °C with lysyl-endopeptidase (Wako) at an enzyme to protein ratio of 1:100. The sample was further diluted to 1.3 M Urea and subjected to overnight enzymatic digestion at 37 °C with sequencing grade trypsin (Promega, enzyme: protein ratio = 1:50). Resultant peptides were acidified with 20% Trifluoroacetic acid (TFA, 1% final concentration), centrifuged at 18,000 × g for 15 min, and desalted using a Sep-Pak C18 column (Waters). […]
For the global proteome, LC-MS/MS analysis was performed by injecting 1 μL of each fraction on an Orbitrap Eclipse mass spectrometer (Thermo Fisher) coupled to a Dionex Ultimate 3000 RSLC (Thermo Fisher) employing a 25 cm IonOpticks Aurora Series column (IonOpticks, Parkville, Australia) with a gradient of 2% to 30% buffer B (98% ACN, 2% H2O with 0.1% FA, flow rate = 300 nL/min). Global proteome samples were analyzed with a total run time of 95 min. […]

The test system of a further assay is IRE1. The arrangement: method as in earlier work. As to conditions: VHL:G6374:IRE1; cited from earlier work.

Consider `Cc1ncsc1-c1ccc(CNC(=O)[C@@H]2C[C@@H](O)CN2C(=O)[C@@H](NC(=O)CCCCN2CCN([C@H]3CC[C@H](Nc4ncc5ccc(=O)n(C(C)C)c5n4)CC3)CC2)C(C)(C)C)cc1` [G6374], for which, in the assay with AMO1 cells, the “protein depletion by global proteomics, G6374 versus G2642” value is “IRE1 as the most substantially and significantly depleted protein target”. Also, in the assay with IRE1, the Dmax is recorded as 95%.
